In patent US9301923B2, “Lipids, lipid compositions, and methods of using them” (NOVARTIS AG, priority 2009, dated 2016):
Values joined by “and” are separate entries in the source; they are usually repeats but may differ in a detail not shown here. Identical values can stand only once. Like-named read-outs stand apart in the source and are kept apart here.

What was measured:
[1] = pKa of the lipid by TNS fluorescence; format: physicochemical
Procedure, shortened: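 Lipid dissolved in ethanol (2 mM stock) and measured with TNS across eight buffers of differing pH, in water at standard temperature and pressure. Normalized fluorescence intensity plotted against pH and points joined by a smooth line to derive pKa, precise to about 0.2 units.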

[2] = Particle size and PDI by dynamic light scattering (Malvern Zetasizer); format: physicochemical; set-up: Final size: unit not given here; details: for Final size: LNP formulation, Table 10
Procedure, shortened: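 Nanoparticles diluted in PBS to a count rate of about 200-400 kcts and measured by dynamic light scattering; size given as intensity-weighted average diameter, with polydispersity index from the same measurement.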

Factor VII = Factor VII activity assay, in vivo liver delivery of FVII siRNA LNP; set-up: species or system mouse; details: for FVII inhib %: ~48 h
Procedure, shortened: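 Female CD-1 mice (~25 g) given a single i.v. tail-vein dose of FVII siRNA in LNPs (cationic, stealth, neutral lipids), dosed as mg siRNA/kg. Plasma collected ~48 h post-injection; FVII activity read against a standard curve from pooled vehicle-control plasma.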

[3] = tested on: PLK-1 mRNA in Hep3B tumors; assay: Hep3B tumor study, PLK-1 mRNA KD in tumor tissue; format: in vivo, human; details: for PLK1 inhibition %: Hep3B tumor, mouse, i.v., LNP composition as in the source; for % KD: formulation containing E0011 and S004
Source text: Formulated siRNAs are made up of double stranded siRNA sequences specific to a target mRNA sequence, and are in the form of lipid nucleotid particles (LNPs) containing cationic lipids, stealth lipids and neutral lipids, as provided in the Examples below. The siRNA construct for use in targeting the liver is specific to Factor VII. The siRNA construct for use in targeting tumors is specific to PLK1-424, which is published by Judge et al., See, J Clin Invest. 2009 March; 119(3):661-73; doi: 10.1172/JCI37515). • 1. FVII siRNA duplex sequence
Hep3B tumors are established in female nude mice by sc injection of 7×10^6 cells in 100 ul PBS into the left flank. Mice are randomized into treatment groups 10-14 days after seeding as tumors reached an average size of 100 mm^3. siRNA formulated LNP formulations are administered at various dose levels intravenously via the lateral tail vein calculated on a mg siRNAs/kg basis according to individual animal weights (10 ml/kg injection volume). Mice are euthanized by CO2 inhalation at various time points and the tumors are harvested for mRNA quantitation. Lipids with a wide range of pKa (5.3-6.6) are used in the LNP formulations. Tumors are measured in 2 dimensions (width×length) to assess tumor growth using digital calipers. Tumor volume is calculated using the equation [a×b×b/2], where a equals the largest diameter and b equals the smallest diameter.
About 30-50 mg tumor tissue is homogenized in tissue lysis buffer in a Qiagen homogenizer followed by centrifugation to clarify lysates. Total RNA is isolated using RNeasy isolation kit (catalog number 74106) according to the manufacture's protocol. PLK-1 mRNA is analyzed by quantitative PCR and normalized to human GAPDH. Applied Biosystems human PLK-1 gene expression assay Hs00983229_m1 and human GAPDH endogenous control cat number 4326317E are used for mRNA detection.
The pKa in all tables refers to the pKa of the cationic lipid. Where multiple doses are indicated (e.g., 3×5), the first number indicates the number of doses given and the second number indicates the amount per dose in mg siRNA (biologically active agent) per kg mouse. In general the multiple doses are administered at 24 hour intervals, and tissues for mRNA quantitation are harvested 24 hours after the last dose.

[4] = LNP formulation with PLK1 siRNA, helper, neutral and stealth lipid, molar ratio and N/P as in the table, stealth lipid S011, molar ratio 60/38/2, N/P 4
[5] = lipid/DSPC/CHOL/AVANTI 880150P 50/28/18/4, N/P 3.43
[6] = lipid/no neutral lipid/CHOL/AVANTI 880150P 50/0/46/4, N/P 3.43
[7] = dose 3 mg/kg siRNA i.v., lipid/DSPC/CHOL/AVANTI 880150P 50/28/18/4, N/P 3.43
[8] = dose 3 mg/kg siRNA i.v., lipid/no neutral lipid/CHOL/AVANTI 880150P 50/0/46/4, N/P 3.43
[9] = LNP formulation with PLK1 siRNA, helper, neutral and stealth lipid, molar ratio and N/P as in the table
[10] = lipid/no neutral lipid/CHOL/GM-020 NOF 60/0/34/6, N/P 3
[11] = lipid/no neutral lipid/CHOL/GM-020 NOF 60/0/36/4, N/P 3
[12] = lipid/no neutral lipid/CHOL/GM-020 NOF 60/0/38/2, N/P 3
[13] = dose 1 mg/kg siRNA i.v., lipid/DSPC/CHOL/AVANTI 880150P 50/28/18/4, N/P 3.43
[14] = lipid/no neutral lipid/CHOL/S006 60/0/37/3, N/P 3
[15] = lipid/no neutral lipid/CHOL/S010 60/0/37/3, N/P 3

| SMILES | pKa ([1]; pKa) | Final size (nm) [2, 5] | PDI [2, 5] | Final size (nm) [2, 6] | PDI [2, 6] | FVII inhib % (Factor VII; [7]) [%] | FVII inhib % (Factor VII; [8]) [%] | PLK1 inhibition % ([3]; 1 × 1 mg siRNA/kg) [%] | Final size (nm) [2, 9] [nm] | PLK1 inhibition % ([3]; 1 × 10 mg siRNA/kg) [%] | also measured |
| --- | --- | --- | --- | --- | --- | --- | --- | --- | --- | --- | --- |
| CCCCC/C=C\C/C=C\CCCCCCCCOCC(CN1CCC(C)CC1)OCCOCCO[C@H]1CC[C@@]2(C)C(=CC[C@H]3[C@@H]4CC[C@H]([C@H](C)CCCC(C)C)[C@@]4(C)CC[C@@H]32)C1 (stereo partly shown) [E0008] | 5.81 | 85 nm | 0.168 | 84 nm | 0.214 | 73 | 84.5 | 38 | – | – | Final size (nm) ([2]; LNP formulation with PLK1 siRNA, helper, neutral and stealth lipid, molar ratio and N/P as in the table, stealth lipid S004, molar ratio 60/38/2, N/P 4): 123.1 nm; Final size (nm) [2, 4]: 93.11 nm; PLK1 inhibition % ([3]; 1 × 5 mg siRNA/kg): 85% |
| CCCCC/C=C\C/C=C\CCCCCCCCOCC(CN1CCOCC1)OCCOCCO[C@H]1CC[C@@]2(C)C(=CC[C@H]3[C@@H]4CC[C@H]([C@H](C)CCCC(C)C)[C@@]4(C)CC[C@@H]32)C1 (stereo partly shown) [E0011] | 5.32 | 111 nm | 0.221 | 108 nm | 0.23 | 86.5 | 92.3 | – | – | – | Final size ([2]; stealth lipid S018): 113.2; Final size ([2]; stealth lipid S019): 110; Final size ([2]; stealth lipid S020): 74.42; PLK1 inhibition % ([3]; 1 × 5 mg siRNA/kg): 66%; PLK1 inhibition % ([3]; 3 × 10 mg siRNA/kg): 71%; % KD ([3]; Table 9, 1×10 mg/kg siRNA): 70%; % KD ([3]; Table 9, 3×5 mg/kg siRNA): 67% |
| CCCCC/C=C\C/C=C\CCCCCCCCOCC(CN1CCCCC1)OCCOCCO[C@H]1CC[C@@]2(C)C(=CCC3C2CC[C@@]2(C)C3CC[C@@H]2[C@H](C)CCCC(C)C)C1 (stereo partly shown) [E0014] | 6.4 | 104 nm and 95 nm | 0.151 and 0.148 | 148 nm | 0.05 | – | 97.4 | – | 82.21 | 22 | pKa [1]: 6.4; Final size (nm) [2, 10]: 85.8 nm; PDI [2, 10]: 0.106; Final size (nm) [2, 11]: 101.5 nm and 94.6 nm; PDI [2, 11]: 0.182 and 0.092; Final size (nm) [2, 12]: 141 nm; PDI [2, 12]: 0.122; FVII inhib % (Factor VII; [13]): 72.1%; FVII inhib % (Factor VII; dose 1 mg/kg siRNA i.v., lipid/no neutral lipid/CHOL/GM-020 NOF 60/0/34/6, N/P 3): 25%; FVII inhib % (Factor VII; dose 1 mg/kg siRNA i.v., lipid/no neutral lipid/CHOL/GM-020 NOF 60/0/36/4, N/P 3, 1 mg/kg): 68.5% and 37.6%; FVII inhib % (Factor VII; dose 1 mg/kg siRNA i.v., lipid/no neutral lipid/CHOL/GM-020 NOF 60/0/38/2, N/P 3): 71.5%; FVII inhib % (Factor VII; dose 3 mg/kg siRNA i.v., lipid/DSPC/CHOL/AVANTI 880150P 50/28/18/4, N/P 3.43, 3 mg/kg): 98.6% and 95.8%; FVII inhib % (Factor VII; dose 3 mg/kg siRNA i.v., lipid/no neutral lipid/CHOL/GM-020 NOF 60/0/34/6, N/P 3): 96.6%; FVII inhib % (Factor VII; dose 3 mg/kg siRNA i.v., lipid/no neutral lipid/CHOL/GM-020 NOF 60/0/36/4, N/P 3): 94%; FVII inhib % (Factor VII; dose 3 mg/kg siRNA i.v., lipid/no neutral lipid/CHOL/GM-020 NOF 60/0/38/2, N/P 3): 96.2%; in vivo Factor VII inhibition (Factor VII; formulation containing the cationic lipid, RNAi construct specific to Factor VII, liver): 97.4% |
| CCCCC/C=C\C/C=C\CCCCCCCCOCC(CN1CCC(OC)C1)OCCOCCO[C@H]1CC[C@@]2(C)C(=CC[C@H]3[C@@H]4CC[C@H]([C@H](C)CCCC(C)C)[C@@]4(C)CC[C@@H]32)C1 (stereo partly shown) [E0024] | 6.62 | 100 nm | 0.148 | 149 nm and 125 nm | 0.092 and 0.08 | 99.9 | 99.5 | – | – | 15 | Final size (nm) ([2]; LNP formulation with PLK1 siRNA, helper, neutral and stealth lipid, molar ratio and N/P as in the table, stealth lipid S004, molar ratio 60/38/0/2, N/P 3): 120.6 nm; Final size (nm) ([2]; LNP formulation with PLK1 siRNA, helper, neutral and stealth lipid, molar ratio and N/P as in the table, stealth lipid S011, molar ratio 40/48/10/2, N/P 3): 88.46 nm; Final size (nm) [2, 14]: 98.53 nm; PDI [2, 14]: 0.12; Final size (nm) [2, 15]: 96.09 nm; PDI [2, 15]: 0.137; FVII inhib % (Factor VII; [13]): 85.3%; FVII inhib % (Factor VII; dose 1 mg/kg siRNA i.v., lipid/no neutral lipid/CHOL/AVANTI 880150P 50/0/46/4, N/P 3.43): 95.7%; FVII inhib % (Factor VII; dose 1 mg/kg siRNA i.v., lipid/no neutral lipid/CHOL/S006 60/0/37/3, N/P 3): 83.8%; FVII inhib % (Factor VII; dose 1 mg/kg siRNA i.v., lipid/no neutral lipid/CHOL/S010 60/0/37/3, N/P 3): 72.2%; PLK1 inhibition % ([3]; 4 × 5 mg siRNA/kg): 23% |
| CCCCC/C=C\C/C=C\CCCCCCCCOCC(CN1CCC(CCC)C1)OCCOCCO[C@H]1CC[C@@]2(C)C(=CCC3C2CC[C@@]2(C)C3CC[C@@H]2[C@H](C)CCCC(C)C)C1 (stereo partly shown) [E0025] | 5.45 | 97 nm | 0.22 | 73 nm | 0.12 | 63 | 94.2 | 27 | – | – | Final size (nm) ([2]; LNP formulation with PLK1 siRNA, helper, neutral and stealth lipid, molar ratio and N/P as in the table, stealth lipid S004, molar ratio 45/43/10/2, N/P 4): 118.8 nm; Final size (nm) ([2]; LNP formulation with PLK1 siRNA, helper, neutral and stealth lipid, molar ratio and N/P as in the table, stealth lipid S011, molar ratio 40/48/10/2, N/P 4): 85.63 nm; Final size (nm) [2, 4]: 95.73 nm |
| CCCCC/C=C\C/C=C\CCCCCCCCOCC(CN1CCC(O)C1)OCCOCCO[C@H]1CC[C@@]2(C)C(=CC[C@H]3[C@@H]4CC[C@H]([C@H](C)CCCC(C)C)[C@@]4(C)CC[C@@H]32)C1 (stereo partly shown) [E0045] | 4.73 | 100 nm | 0.18 | 103 nm | 0.25 | 10.4 | 90.7 | 36 | 103.2 | – | – |
| CCCCC/C=C\C/C=C\CCCCCCCCOCC(Cn1ccnc1)OCCOCCO[C@H]1CC[C@@]2(C)C(=CCC3C2CC[C@@]2(C)C3CC[C@@H]2[C@H](C)CCCC(C)C)C1 (stereo partly shown) [E0051] | 5.73 | 157.7 nm | 0.131 | 142.9 nm | 0.057 | 17 | 77.5 | – | 85.77 | 17 | – |
